Experiment [1] deals with T1, Recombinant BTK^C481S kinase (Homo sapiens, UniProt Q06187, C481S).
T1 construct: purchased SignalChem
The experiment in a line: BTK C481S binding affinity (LanthaScreen TR-FRET). Conditions: Kinase Tracer 236, 5 h incubation. The procedure, abridged:
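BTK C481S tracer-displacement TR-FRET: 5 nM His-tagged kinase, 2 nM Eu anti-His antibody and 30 nM Kinase Tracer 236 incubated with titrated inhibitor for 5 h in Kinase Buffer A. Read at 340 nm excitation, 615/665 nm emission; IC50 from variable-slope log[inhibitor]–response fit.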

The test system of experiment [2] is OCI-Ly10 human DLBCL cells. The experiment in a line: OCI-Ly10 anti-proliferative activity (Resazurin). The experiment is classed as cell-based. To be noted: OCI-Ly10 cells, 72 h compound treatment, Resazurin, read-out: Proliferation Assay OCI-Ly10-20% FBS. A digest of the protocol: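 OCI-Ly10 human DLBCL cells, whose growth depends on NFκB signalling, were seeded at 7.5×10^3 cells per well in 96-well plates with a range of compound concentrations and kept at 37° C for 72 h. Resazurin was then added, and after 5 h fluorescence was read at 590 nm.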

For experiment [3], the target named is T2, Recombinant BTK^WT kinase (Homo sapiens, UniProt Q06187).
T2 construct: purchased Invitrogen
T2 sequence (Q06187 whole entry): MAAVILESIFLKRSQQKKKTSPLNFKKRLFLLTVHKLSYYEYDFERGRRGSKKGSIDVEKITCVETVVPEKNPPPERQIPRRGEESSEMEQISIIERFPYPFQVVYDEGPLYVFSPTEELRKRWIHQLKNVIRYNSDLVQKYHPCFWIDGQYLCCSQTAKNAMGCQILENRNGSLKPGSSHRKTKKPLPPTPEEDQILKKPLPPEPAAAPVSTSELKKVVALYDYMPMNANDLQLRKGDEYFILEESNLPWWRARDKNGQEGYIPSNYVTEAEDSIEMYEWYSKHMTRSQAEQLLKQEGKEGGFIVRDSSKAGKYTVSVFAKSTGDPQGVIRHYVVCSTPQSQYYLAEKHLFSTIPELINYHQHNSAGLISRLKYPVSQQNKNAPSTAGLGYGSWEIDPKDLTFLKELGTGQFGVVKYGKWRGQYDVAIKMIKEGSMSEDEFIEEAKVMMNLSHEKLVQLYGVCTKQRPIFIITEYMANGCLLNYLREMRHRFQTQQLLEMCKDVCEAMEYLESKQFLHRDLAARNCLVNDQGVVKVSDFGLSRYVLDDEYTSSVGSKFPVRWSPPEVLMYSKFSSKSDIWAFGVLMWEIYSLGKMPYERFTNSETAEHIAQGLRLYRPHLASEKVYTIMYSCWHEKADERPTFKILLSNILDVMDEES
The experiment in a line: BTK WT binding affinity (LanthaScreen TR-FRET). Conditions: Kinase Tracer 236, 5 h incubation. A digest of the protocol: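 Tracer-displacement TR-FRET: 2.5 nM recombinant BTK^WT, 2 nM Eu anti-His antibody and 15 nM Kinase Tracer 236 incubated with varying inhibitor concentrations for 5 h in Kinase Buffer A. Signal read at 340 nm excitation, 615/665 nm emission; IC50 from variable-slope log[inhibitor]–response fit.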

Another experiment deals with T3, Recombinant EGFR (Homo sapiens, UniProt P00533).
T3 construct: purchased Invitrogen
T3 sequence (P00533 25-1210): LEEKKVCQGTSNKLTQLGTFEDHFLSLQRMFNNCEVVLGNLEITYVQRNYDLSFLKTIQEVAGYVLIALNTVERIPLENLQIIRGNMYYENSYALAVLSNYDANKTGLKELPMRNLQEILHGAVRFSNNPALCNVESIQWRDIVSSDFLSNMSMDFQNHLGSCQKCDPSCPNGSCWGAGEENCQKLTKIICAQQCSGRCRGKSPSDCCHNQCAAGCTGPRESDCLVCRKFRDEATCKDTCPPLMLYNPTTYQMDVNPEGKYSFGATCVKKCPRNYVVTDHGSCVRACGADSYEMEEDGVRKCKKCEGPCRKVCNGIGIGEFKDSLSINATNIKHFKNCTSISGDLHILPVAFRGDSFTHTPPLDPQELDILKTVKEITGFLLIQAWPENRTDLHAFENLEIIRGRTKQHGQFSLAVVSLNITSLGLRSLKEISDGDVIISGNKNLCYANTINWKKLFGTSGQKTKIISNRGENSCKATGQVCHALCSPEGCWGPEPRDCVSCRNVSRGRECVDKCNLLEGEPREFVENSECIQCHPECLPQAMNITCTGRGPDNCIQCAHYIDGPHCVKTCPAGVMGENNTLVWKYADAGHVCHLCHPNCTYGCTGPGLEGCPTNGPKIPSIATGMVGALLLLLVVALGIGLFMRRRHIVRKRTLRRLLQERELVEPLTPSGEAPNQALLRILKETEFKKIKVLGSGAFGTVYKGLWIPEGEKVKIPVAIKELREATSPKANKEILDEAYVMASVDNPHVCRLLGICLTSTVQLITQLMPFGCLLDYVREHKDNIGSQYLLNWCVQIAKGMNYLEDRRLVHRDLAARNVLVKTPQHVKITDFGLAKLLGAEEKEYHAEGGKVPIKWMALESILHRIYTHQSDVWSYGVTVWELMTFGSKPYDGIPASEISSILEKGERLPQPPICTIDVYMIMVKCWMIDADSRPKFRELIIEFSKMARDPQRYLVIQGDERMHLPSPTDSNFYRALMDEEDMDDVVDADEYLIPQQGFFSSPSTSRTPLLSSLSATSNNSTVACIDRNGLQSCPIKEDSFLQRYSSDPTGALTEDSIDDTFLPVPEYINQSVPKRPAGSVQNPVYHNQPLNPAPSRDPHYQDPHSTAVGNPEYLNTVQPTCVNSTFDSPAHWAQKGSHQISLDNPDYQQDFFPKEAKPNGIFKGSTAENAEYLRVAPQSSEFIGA
In words: EGFR binding affinity (LanthaScreen TR-FRET). Conditions: Kinase Tracer 199, 5 h incubation. A digest of the protocol:
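TR-FRET binding (LanthaScreen) with recombinant EGFR; signal measured across a compound concentration range. IC50 obtained by fitting RFU against log[inhibitor] to a variable-slope model.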

The values that follow come from US11826351B2, “Compounds useful as kinase inhibitors” (Loxo Oncology, Inc., priority 2015, dated 2023).

Like-named read-outs stand apart in the source and are kept apart here. Where only a bound is given, the exact number is not on record here.

T1 sequence (Q06187 whole entry C481S): as the sequence (Q06187 whole entry) above, with C481S counted along it

For `COc1ccccc1C(=O)NCc1ccc(-c2nn(C3CCC(C(=O)N(C)C)CC3)c(N)c2C(N)=O)cc1` (single isomer, unassigned) [Example 57a, 5-amino-1-[4-(dimethylcarbamoyl)cyclohexyl]-3-[4-[[(2-methoxybenzoyl)amino]methyl]phenyl]pyrazole-4-carboxamide], the IC50 is below 10 nM in experiment [1], 10 to 100 nM in experiment [2], below 10 nM in experiment [3] and 100 to 1000 nM at Recombinant EGFR.

With `COc1ccccc1C(=O)NCc1ccc(-c2nn(C(C)C(F)F)c(N)c2C(N)=O)cc1` (centres unmarked) [Example 126, 5-amino-1-(2,2-difluoro-1-methyl-ethyl)-3-[4-[[(2-methoxybenzoyl)amino]methyl]phenyl]pyrazole-4-carboxamide], the IC50 in experiment [1] was below 10 nM; in experiment [2] (Homo sapiens, OCI-Ly10, 72 h) it was 100 to 1000 nM; in experiment [3], 10 to 100 nM; on Recombinant EGFR, 1000 to 10000 nM.

For `COc1ccccc1C(=O)NCc1ccc(-c2nn(C3C[C@@H]4C[C@@H]4C3)c(N)c2C(N)=O)cc1` (some centres unmarked) [Example 4, 5-Amino-1-(3-bicyclo[3.1.0]hexanyl)-3-[4-[[(2-methoxybenzoyl)amino]methyl]phenyl]pyrazole-4-carboxamide], the IC50 in experiment [1] is below 10 nM; in experiment [2] (Homo sapiens, OCI-Ly10, 72 h) it was below 10 nM; in experiment [3] it was below 10 nM; at Recombinant EGFR, 100 to 1000 nM.

Consider `COCC(C)n1nc(-c2ccc(CNC(=O)c3ccccc3OC)cc2)c(C(N)=O)c1N` (centres unmarked) [Example 143, 5-amino-3-[4-[[(2-methoxybenzoyl)amino]methyl]phenyl]-1-(2-methoxy-1-methyl-ethyl)pyrazole-4-carboxamide], for which the IC50 in experiment [1] was below 10 nM; in experiment [2] (Homo sapiens, OCI-Ly10, 72 h) it was 100 to 1000 nM; in experiment [3], 10 to 100 nM; at Recombinant EGFR, above 10000 nM.

Consider `COc1ccc(C)cc1C(=O)NCc1ccc(-c2nn(C3CCCC3)c(N)c2C(N)=O)cc1F` [Example 92, 5-amino-1-cyclopentyl-3-[3-fluoro-4-[[(2-methoxy-5-methyl-benzoyl)amino]methyl]phenyl]pyrazole-4-carboxamide], for which the IC50 in experiment [1] was below 10 nM; in experiment [2] (Homo sapiens, OCI-Ly10, 72 h) it was 10 to 100 nM; in experiment [3], below 10 nM; on Recombinant EGFR it was above 10000 nM.
